Results taken from patent publication US20250092065A1, “2-(INDAZOL-5-YL)-6-(PIPERIDIN-4-YL)-1,7-NAPHTHYRIDINE DERIVATIVES AND RELATED COMPOUNDS AS MODULATORS FOR SPLICING NUCLEIC ACIDS AND FOR THE TREATMENT OF PROLIFERATIVE DISEASES” (REMIX THERAPEUTICS INC., priority 2022, published 2025).
Like-named read-outs stand apart in the source and are kept apart here.

Key:
HTT mRNA = assay: RT-qPCR splicing assay, HTT mRNA canonical (CJ) and alternative (AJ) junction; type: cell-based, human; details: for AC50: HTT alternative junction mRNA, read-out: HTT AJ (increase in AJ mRNA, AC50)
Procedure, shortened: (§1)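 Both isoforms, CJ and AJ, read by qPCR from crude lysates of treated A673 or K562 cells; 24 h, 37 °C, maximum 10 uM. Normalization: housekeeper ΔCt, then DMSO ΔΔCt.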

MYB mRNA = assay: RT-qPCR splicing assay, MYB mRNA canonical (CJ) and alternative (AJ) junction; type: cell-based, human; details: for AC50: MYB alternative junction mRNA, read-out: MYB AJ (increase in AJ mRNA, AC50)
Procedure, shortened: as §1

MYB = assay: HiBiT protein abundance assay, MYB (K562 HiBiT knock-in); type: cell-based, human; details: HiBiT knock-in K562 cells, 24 hours, top dose 10 μM
Procedure, shortened: (§2)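 Endogenously HiBiT-tagged K562 lines were treated for 24 h at 37 °C with 10-point 3-fold dilutions (top 10 μM final, DMSO ≤0.25%). Lytic LgBiT complementation luminescence was normalized between unmodified K562 (PC) and DMSO-treated tagged cells (NC); IC50 was interpolated at 50% from a four-parameter logistic fit.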

HTT = assay: HiBiT protein abundance assay, HTT (K562 HiBiT knock-in); type: cell-based, human; details: HiBiT knock-in K562 cells, 24 hours, top dose 10 μM
Procedure, shortened: as §2

K562 cells = assay: Cell Titer Glo 2.0 cell viability (toxicity) assay, K562; details: 500 cells/well, 72 hours
[1] = Homo sapiens, HTT canonical junction mRNA, RT-qPCR, read-out: HTT CJ (decrease in CJ mRNA levels, IC50)
[2] = Homo sapiens, canonical junction qPCR panel, Table 4, read-out: HTT IC50 (decrease in CJ mRNA levels)
[3] = Homo sapiens, MYB canonical junction mRNA, RT-qPCR, read-out: MYB CJ (decrease in CJ mRNA levels, IC50)
[4] = Homo sapiens, canonical junction qPCR panel, Table 4, read-out: MYB IC50 (decrease in CJ mRNA levels)

| Compound | IC50 (HTT mRNA; [1]) | IC50 (HTT mRNA; [2]) | IC50 (MYB mRNA; [3]) | IC50 (MYB mRNA; [4]) | IC50 (MYB) | IC50 (HTT) | IC50 (HTT mRNA; HTT canonical junction mRNA, RT-qPCR, read-out: HTT CJ (decrease in CJ mRNA levels, IC50)) | IC50 (HTT mRNA; canonical junction qPCR panel, Table 4, read-out: HTT IC50 (decrease in CJ mRNA levels)) | IC50 (MYB mRNA; MYB canonical junction mRNA, RT-qPCR, read-out: MYB CJ (decrease in CJ mRNA levels, IC50)) | IC50 (MYB mRNA; canonical junction qPCR panel, Table 4, read-out: MYB IC50 (decrease in CJ mRNA levels)) | AC50 (HTT mRNA; Homo sapiens, RT-qPCR) | AC50 (MYB mRNA; Homo sapiens, RT-qPCR) | Effect of Exemplary Compounds on Cell Viability, K562 (K562 cells) | AC50 (HTT mRNA; RT-qPCR) | AC50 (MYB mRNA; RT-qPCR) |
| --- | --- | --- | --- | --- | --- | --- | --- | --- | --- | --- | --- | --- | --- | --- | --- |
| Cc1nc2cc(O)c(-c3ccc4nc(N5CCC(NCC6CC6)C5)ccc4n3)cc2o1 (single isomer, unassigned) [Compound 291, 6-(6-{3-[(cyclopropylmethyl)amino]pyrrolidin-1-yl}-1,5-naphthyridin-2-yl)-2-methyl-1,3-benzoxazol-5-ol] | 100 to 1000 nM | 100 to 1000 nM | 100 to 1000 nM | 100 to 1000 nM | 100 to 1000 nM | < 100 nM | – | – | – | – | 100 to 1000 nM | 100 to 1000 nM | B (B represents 100-1000 nM) | – | – |
| Cc1nc2cc(O)c(-c3ccc4nc(N5CCC(NCC6CC6)C5)ccc4n3)cc2o1 (single isomer, unassigned) [Compound 292, 6-(6-{3-[(cyclopropylmethyl)amino]pyrrolidin-1-yl}-1,5-naphthyridin-2-yl)-2-methyl-1,3-benzoxazol-5-ol] | – | – | – | – | 100 to 1000 nM | < 100 nM | 100 to 1000 nM | 100 to 1000 nM | < 100 nM | < 100 nM | – | – | B (B represents 100-1000 nM) | 100 to 1000 nM | 100 to 1000 nM |
| Cn1cc2cc(-c3ccc4nc(N5CC[C@@H](N[C@H]6C[C@@H](F)C6)C5)ccc4n3)c(O)cc2n1 (single isomer, unassigned) [Compound 300] | < 100 nM | < 100 nM | < 100 nM | < 100 nM | < 100 nM | < 100 nM | – | – | – | – | < 100 nM | < 100 nM | B (B represents 100-1000 nM) | – | – |
| Cn1cc2cc(-c3ccc4nc(N5CC[C@@H](NCC6CC6)C5)ccc4n3)c(O)c(F)c2n1 (single isomer, unassigned) [Compound 303] | < 100 nM | < 100 nM | < 100 nM | < 100 nM | < 100 nM | < 100 nM | – | – | – | – | < 100 nM | < 100 nM | A (A represents <100 nM) | – | – |
| Cn1cc2cc(-c3ccc4nc(N5CC[C@H](NCC6CC6)C5)ccc4n3)c(O)c(F)c2n1 (single isomer, unassigned) [Compound 304] | < 100 nM | < 100 nM | < 100 nM | < 100 nM | < 100 nM | < 100 nM | – | – | – | – | < 100 nM | < 100 nM | A (A represents <100 nM) | – | – |
| Cn1cc2cc(-c3ccc4nc(N5CC[C@@H](NC6CC6)C5)ccc4n3)c(O)c(F)c2n1 (single isomer, unassigned) [Compound 305] | < 100 nM | < 100 nM | < 100 nM | < 100 nM | < 100 nM | < 100 nM | – | – | – | – | < 100 nM | < 100 nM | A (A represents <100 nM) | – | – |
| Cn1cc2cc(-c3ccc4nc(N5CC[C@H](NC6CC6)C5)ccc4n3)c(O)c(F)c2n1 (single isomer, unassigned) [Compound 306] | < 100 nM | < 100 nM | < 100 nM | < 100 nM | < 100 nM | < 100 nM | – | – | – | – | < 100 nM | < 100 nM | A (A represents <100 nM) | – | – |
| Cc1nc2c(F)c(O)c(-c3ccc4nc(N5CC[C@@H](NC6CCC6)C5)ccc4n3)cc2o1 (single isomer, unassigned) [Compound 307] | < 100 nM | < 100 nM | < 100 nM | < 100 nM | < 100 nM | < 100 nM | – | – | – | – | < 100 nM | < 100 nM | A (A represents <100 nM) | – | – |
| Cc1nc2c(F)c(O)c(-c3ccc4nc(N5CC[C@H](NC6CCC6)C5)ccc4n3)cc2o1 (single isomer, unassigned) [Compound 308] | < 100 nM | < 100 nM | < 100 nM | < 100 nM | < 100 nM | < 100 nM | – | – | – | – | < 100 nM | < 100 nM | A (A represents <100 nM) | – | – |
| Cc1cn2nc(-c3ccc4nc(N5CCC(NC6CC6)C5)ccc4n3)c(O)c2c(C)n1 (centres unmarked) [Compound 252] | < 100 nM | < 100 nM | 100 to 1000 nM | 100 to 1000 nM | 100 to 1000 nM | 100 to 1000 nM | – | – | – | – | 100 to 1000 nM | 100 to 1000 nM | – | – | – |

Continued, in another order:

| IC50 (HTT mRNA; [1]) | IC50 (HTT mRNA; [2]) | IC50 (MYB mRNA; [3]) | IC50 (MYB mRNA; [4]) | IC50 (MYB) | IC50 (HTT) | IC50 (HTT mRNA; HTT canonical junction mRNA, RT-qPCR, read-out: HTT CJ (decrease in CJ mRNA levels, IC50)) | IC50 (HTT mRNA; canonical junction qPCR panel, Table 4, read-out: HTT IC50 (decrease in CJ mRNA levels)) | IC50 (MYB mRNA; MYB canonical junction mRNA, RT-qPCR, read-out: MYB CJ (decrease in CJ mRNA levels, IC50)) | IC50 (MYB mRNA; canonical junction qPCR panel, Table 4, read-out: MYB IC50 (decrease in CJ mRNA levels)) | Compound | AC50 (HTT mRNA; Homo sapiens, RT-qPCR) | AC50 (MYB mRNA; Homo sapiens, RT-qPCR) | Effect of Exemplary Compounds on Cell Viability, K562 (K562 cells) | AC50 (HTT mRNA; RT-qPCR) | AC50 (MYB mRNA; RT-qPCR) |
| --- | --- | --- | --- | --- | --- | --- | --- | --- | --- | --- | --- | --- | --- | --- | --- |
| < 100 nM | < 100 nM | < 100 nM | < 100 nM | < 100 nM | < 100 nM | – | – | – | – | Cn1cc2cc(-c3ccc4nc(N5CCC(NC6CC6)C5)ccc4n3)c(O)c(F)c2n1 (racemic) [Compound 287, 5-{6-[3-(cyclopropylamino)pyrrolidin-1-yl]-1,5-naphthyridin-2-yl}-7-fluoro-2-methylindazol-6-ol; trifluoroacetic acid] | < 100 nM | < 100 nM | A (A represents <100 nM) | – | – |
| < 100 nM | < 100 nM | < 100 nM | < 100 nM | < 100 nM | < 100 nM | – | – | – | – | CC(C)N[C@@H]1CCN(c2ccc3nc(-c4cc5cn(C)nc5c(F)c4O)ccc3n2)C1 (single isomer, unassigned) [Compound 285] | < 100 nM | < 100 nM | A (A represents <100 nM) | – | – |
| < 100 nM | < 100 nM | < 100 nM | < 100 nM | < 100 nM | < 100 nM | – | – | – | – | CC(C)N[C@H]1CCN(c2ccc3nc(-c4cc5cn(C)nc5c(F)c4O)ccc3n2)C1 (single isomer, unassigned) [Compound 286] | < 100 nM | < 100 nM | A (A represents <100 nM) | – | – |
| < 100 nM | < 100 nM | < 100 nM | < 100 nM | < 100 nM | < 100 nM | – | – | – | – | Cc1c(O)c(-c2ccc3nc(N4CC[C@@H](NC5CCC5)C4)ccc3n2)cc2cn(C)nc12 (single isomer, unassigned) [Compound 289] | < 100 nM | < 100 nM | A (A represents <100 nM) | – | – |
| < 100 nM | < 100 nM | < 100 nM | < 100 nM | < 100 nM | < 100 nM | – | – | – | – | Cc1c(O)c(-c2ccc3nc(N4CC[C@H](NC5CCC5)C4)ccc3n2)cc2cn(C)nc12 (single isomer, unassigned) [Compound 290] | < 100 nM | < 100 nM | A (A represents <100 nM) | – | – |
| < 100 nM | < 100 nM | < 100 nM | < 100 nM | < 100 nM | < 100 nM | – | – | – | – | Cc1nc2c(C)c(O)c(-c3ccc4nc(N5CC[C@@H](NCC6CC6)C5)ccc4n3)cc2o1 (single isomer, unassigned) [Compound 295] | < 100 nM | < 100 nM | B (B represents 100-1000 nM) | – | – |
| < 100 nM | < 100 nM | 100 to 1000 nM | 100 to 1000 nM | < 100 nM | < 100 nM | – | – | – | – | Cc1nc2c(C)c(O)c(-c3ccc4nc(N5CC[C@H](NCC6CC6)C5)ccc4n3)cc2o1 (single isomer, unassigned) [Compound 296] | < 100 nM | < 100 nM | B (B represents 100-1000 nM) | – | – |
